Reference: US7608627B2, “6-azaindole compound” (Takeda Pharmaceutical Company Limited, priority 2005, dated 2009)
Counter-ions that a name gives are not always drawn.

melting point	SMILES
201 to 204 °C	Cl.Clc1nccc2cc(CNCc3ccccc3)[nH]c12
179 to 181 °C	O=C(NCc1cccs1)c1cc2ccnc(Cl)c2[nH]1 [Example 8, 7-Chloro-N-(2-thienylmethyl)-1H-pyrrolo[2,3-c]pyridine-2-carboxamide]
152 to 154 °C	O=C(NCc1cccs1)c1cc2ccnc(N(Cc3ccccc3)Cc3ccccc3)c2[nH]1 [Example 38, 7-(Dibenzylamino)-N-(2-thienylmethyl)-1H-pyrrolo[2,3-c]pyridine-2-carboxamide]
314 to 318 °C (dec.)	C/C(=N\NC(=N)N)c1cc2ccncc2[nH]1 (as salt: hydrochloride) [Example 71, [[1-(1H-Pyrrolo[2,3-c]pyridin-2-yl)ethylidene]amino]guanidine dihydrochloride]
146 to 150 °C	NCCO/N=C(/c1ccc(Cl)cc1)c1cc2ccncc2[nH]1 (single isomer, unassigned) (as salt: trifluoroacetate) [Example 126, (4-Chlorophenyl)(1H-pyrrolo[2,3-c]pyridin-2-yl)methanone O-(2-aminoethyl)oxime bis(hydrogen trifluoroacetate)]
176 to 179 °C	Cl.Clc1nccc2cc(CNCc3ccccn3)[nH]c12
168 to 174 °C (dec.)	Cl.NCCCO/N=C(\c1ccccc1)c1cc2ccncc2[nH]1
185 to 187 °C	OCc1cc2ccnc(Cl)c2[nH]1 [Example 1, (7-Chloro-1H-pyrrolo[2,3-c]pyridin-2-yl)methanol]
178 to 184 °C	COc1ccc(/C(=N/OCCN)c2cc3ccncc3[nH]2)cc1 (single isomer, unassigned) (as salt: hydrochloride) [Example 124, (4-Methoxyphenyl)(1H-pyrrolo[2,3-c]pyridin-2-yl)methanone O-(2-aminoethyl)oxime dihydrochloride]
105 to 108 °C	O=C(NCc1cccnc1)c1cc2ccnc(N(Cc3ccccc3)Cc3ccccc3)c2[nH]1 [Example 37, 7-(Dibenzylamino)-N-(3-pyridinylmethyl)-1H-pyrrolo[2,3-c]pyridine-2-carboxamide]
169 to 172 °C (dec.)	OC(Cc1ccccc1)c1cc2ccncc2[nH]1 (stereo not drawn) [Example 85, 2-Phenyl-1-(1H-pyrrolo[2,3-c]pyridin-2-yl)ethanol]
219 to 222 °C	O=C(c1ccccn1)c1cc2ccncc2[nH]1 [Example 122, (Pyridin-2-yl)(1H-pyrrolo[2,3-c]pyridin-2-yl)methanone]
205 to 209 °C	O=C(NCc1ccco1)c1cc2ccnc(Cl)c2[nH]1 [Example 7, 7-Chloro-N-(2-furylmethyl)-1H-pyrrolo[2,3-c]pyridine-2-carboxamide]
274 to 277 °C (dec.)	O=C(c1ccc(Cl)cc1)c1cc2ccncc2[nH]1 [Example 103, (4-Chlorophenyl)(1H-pyrrolo[2,3-c]pyridin-2-yl)methanone]
199 to 200 °C	O=C(NCc1ccncc1)c1cc2ccnc(NCc3ccccc3)c2[nH]1 [Example 42, 7-(Benzylamino)-N-(4-pyridinylmethyl)-1H-pyrrolo[2,3-c]pyridine-2-carboxamide]
166 to 169 °C	OC(c1ccccn1)c1cc2ccncc2[nH]1 (stereo not drawn) [Example 117, (Pyridin-2-yl)(1H-pyrrolo[2,3-c]pyridin-2-yl)methanol]
225 to 228 °C	COc1ccc(C(=O)c2cc3ccncc3[nH]2)cc1 [Example 102, (4-Methoxyphenyl)(1H-pyrrolo[2,3-c]pyridin-2-yl)methanone]
98 to 101 °C	Cl.Clc1nccc2cc(CNCc3ccco3)[nH]c12
240 to 245 °C (dec.)	c1ccc(C(=NOC2CCNCC2)c2cc3ccncc3[nH]2)cc1 (single isomer, unassigned) (as salt: hydrochloride)
80 to 82 °C	CC(C)(C)OC(=O)N1CCC(ON=C(c2ccccc2)c2cc3ccncc3[nH]2)C1 (stereo not drawn) [Example 90, tert-Butyl 3-[[[phenyl(1H-pyrrolo[2,3-c]pyridin-2-yl)methylene]amino]oxy]pyrrolidine-1-carboxylate]
194 to 197 °C	O=C(c1ccccc1)c1cc2cc(Cl)ncc2[nH]1 [Example 73, (5-Chloro-1H-pyrrolo[2,3-c]pyridin-2-yl)(phenyl)methanone]
270 to 290 °C	O=C(Nc1cccnc1)c1cc2ccncc2[nH]1 [Example 30, N-(3-Pyridinyl)-1H-pyrrolo[2,3-c]pyridine-2-carboxamide]
53 to 61 °C	OC(c1ccccc1)c1cc2ccnc(N(Cc3ccccc3)Cc3ccccc3)c2[nH]1 (stereo not drawn) [Example 46, [7-(Dibenzylamino)-1H-pyrrolo[2,3-c]pyridin-2-yl](phenyl)methanol]
224 to 228 °C	CC(C)C(=O)c1cc2ccncc2[nH]1 [Example 80, 2-Methyl-1-(1H-pyrrolo[2,3-c]pyridin-2-yl)-1-propanone]
62 to 72 °C	O=C(c1cc2ccnc(Cl)c2[nH]1)N1CCSCC1 [Example 14, 7-Chloro-2-(4-thiomorpholinylcarbonyl)-1H-pyrrolo[2,3-c]pyridine]
178 to 188 °C	O=C(NC(c1ccccc1)c1cc2ccncc2[nH]1)c1cccnc1 (stereo not drawn) [Example 43, N-[Phenyl(1H-pyrrolo[2,3-c]pyridin-2-yl)methyl]nicotinamide]

melting point	SMILES
170 to 171 °C	O=C(c1cc2ccnc(Cl)c2[nH]1)N1CCOCC1 [Example 3, 7-Chloro-2-(4-morpholinylcarbonyl)-1H-pyrrolo[2,3-c]pyridine]
240 to 245 °C (dec.)	Cl.Cl.c1ccc(C(=NOC2CCCNC2)c2cc3ccncc3[nH]2)cc1 (single isomer, unassigned)
161 to 165 °C (dec.)	Cl.NCCO/N=C(\c1ccccc1)c1cc2ccncc2[nH]1 [Example 95]
178 to 180 °C	OC(c1ccccc1)c1cc2ccncc2[nH]1 (stereo not drawn) [Example 52, Phenyl(1H-pyrrolo[2,3-c]pyridin-2-yl)methanol]
> 320 °C	O=C(Nc1ccncc1)c1cc2ccnc(Cl)c2[nH]1 [Example 22, 7-Chloro-N-(4-pyridinyl)-1H-pyrrolo[2,3-c]pyridine-2-carboxamide]
236 to 242 °C (dec.)	CC(=O)c1cc2ccncc2[nH]1 [Example 70, 1-(1H-Pyrrolo[2,3-c]pyridin-2-yl)ethanone]
> 320 °C	O=C(Nc1cccnc1)c1cc2ccnc(Cl)c2[nH]1 [Example 21, 7-Chloro-N-(3-pyridinyl)-1H-pyrrolo[2,3-c]pyridine-2-carboxamide]
232 to 236 °C (dec.)	O=C(c1ccoc1)c1cc2ccncc2[nH]1 [Example 137, 3-Furyl(1H-pyrrolo[2,3-c]pyridin-2-yl)methanone]
166 to 169 °C	CC(C)(C)OC(=O)NCCO/N=C(\c1ccc(Cl)cc1)c1cc2ccncc2[nH]1 (single isomer, unassigned) [Example 116, tert-Butyl 2-[[[(4-chlorophenyl)(1H-pyrrolo[2,3-c]pyridin-2-yl)methylene]amino]oxy]ethylcarbamate]
220 to 222 °C	CON=C(c1ccccc1)c1cc2ccncc2[nH]1.Cl [Example 121]
52 to 58 °C	CC(C)(C)OC(=O)NCCCO/N=C(\c1ccccc1)c1cc2ccncc2[nH]1 [Example 76, tert-Butyl 3-[[[phenyl(1H-pyrrolo[2,3-c]pyridin-2-yl)methylene]amino]oxy]propylcarbamate]
140 to 144 °C	CC(C)C(O)c1cc2ccncc2[nH]1 (stereo not drawn) [Example 78, 2-Methyl-1-(1H-pyrrolo[2,3-c]pyridin-2-yl)-1-propanol]
183 to 185 °C (dec.)	COc1ccc(C(O)c2cc3ccncc3[nH]2)cc1 (stereo not drawn) [Example 99, (4-Methoxyphenyl)(1H-pyrrolo[2,3-c]pyridin-2-yl)methanol]
230 to 232 °C	CN1CCN(C(=O)c2cc3ccnc(Cl)c3[nH]2)CC1
146 to 150 °C	Cl.Clc1nccc2cc(CNCCN3CCOCC3)[nH]c12
64 to 68 °C	NCCON=C(c1ccc(Cl)c(Cl)c1)c1cc2ccncc2[nH]1 (as salt: trifluoroacetate) [Example 134, (3,4-Dichlorophenyl)(1H-pyrrolo[2,3-c]pyridin-2-yl)methanone O-(2-aminoethyl)oxime bis(hydrogen trifluoroacetate)]
306 to 310 °C	N=C(N)NN=C(c1ccccc1)c1cc2ccncc2[nH]1 (as salt: hydrochloride)
119 to 120 °C	O=C(NCc1ccncc1)c1cc2ccnc(N(Cc3ccccc3)Cc3ccccc3)c2[nH]1 [Example 41, 7-(Dibenzylamino)-N-(4-pyridinylmethyl)-1H-pyrrolo[2,3-c]pyridine-2-carboxamide]
274 to 278 °C	N=C(N)N/N=C(\c1ccccc1)c1cc2cc(Cl)ncc2[nH]1 (as salt: hydrochloride)
230 to 236 °C	O=C(NCc1ccccn1)c1cc2ccncc2[nH]1 [Example 27, N-(2-Pyridinylmethyl)-1H-pyrrolo[2,3-c]pyridine-2-carboxamide]
170 to 185 °C (dec.)	Clc1nccc2cc(C(NCc3ccccc3)c3ccccc3)[nH]c12 (stereo not drawn) (as salt: hydrochloride) [Example 34, N-Benzyl-N-[(7-chloro-1H-pyrrolo[2,3-c]pyridin-2-yl)(phenyl)methyl]amine dihydrochloride]
176 to 180 °C	OC(c1ccc(Cl)cc1)c1cc2ccncc2[nH]1 (stereo not drawn) [Example 101, (4-Chlorophenyl)(1H-pyrrolo[2,3-c]pyridin-2-yl)methanol]
189 to 191 °C	O=C(NCc1cccnc1)c1cc2ccnc(Cl)c2[nH]1 [Example 5, 7-Chloro-N-(3-pyridinylmethyl)-1H-pyrrolo[2,3-c]pyridine-2-carboxamide]
242 to 245 °C (dec.)	CCNCc1cc2ccnc(Cl)c2[nH]1.Cl
245 to 247 °C	O=C(c1ccccc1)c1cc2ccncc2[nH]1 [Example 35, Phenyl(1H-pyrrolo[2,3-c]pyridin-2-yl)methanone]
